Experimental findings from PubChem BioAssay AID489035 (Sanford-Burnham Center for Chemical Genomics, 2010) are described below.

Calls of active or inactive are those of the source. The rule behind the calls is not given here.

The term IC50 denotes the midpoint of a concentration-inhibition curve.

This test has as its system Jurkat NF-kB reporter, TCR-induced, luciferase luminescence. Briefly: inhibitors of TCR-driven NF-kB activation, dose response, Jurkat cells, luminescence (AID 489035).
Regarding `COc1ccccc1NC(=O)c1cnc(Nc2ccccc2OC)c2ccccc12`, the IC50 is > 80 µM (inactive).
`CCn1c2ccccc2c2cc(Nc3cc(C)nc4ncnn34)ccc21`: the IC50 is > 80 µM (inactive).
The value for `Cc1c(C(=O)OCc2ccccc2)[nH]c2c1C(=O)CC(c1ccco1)C2` (stereo unspecified) was > 80 µM (inactive).
With `Clc1cccc(Cl)c1/C=N/Nc1c(Cl)cncc1Cl`, the IC50 is > 80 µM (inactive).
On to `Cc1ccc(NC(=O)CSc2nc(-c3ccco3)cc(C(F)(F)F)n2)cc1C`, for which the IC50 is > 80 µM (inactive).
On to `CCN1/C(=C/C(C)=C/c2sc3ccccc3[n+]2CC)Sc2ccccc21`, for which the IC50 was 4.63 µM.
The figure for `O=C1CC(c2cc(Br)ccc2F)c2cc3c(cc2N1)CCC3` (stereo unspecified) is 15.6 µM; for `CCc1ccc(N2C(=O)C(Cl)=C(Nc3ccc(C(=O)N4CCCC4)cc3)C2=O)cc1` it is 6.33 µM; for `COc1ccc(NC(=O)C(=O)NCC2CCCN2S(=O)(=O)c2ccc(C)cc2)cc1` (stereo unspecified) it is > 80 µM (inactive).
For `CCOc1ccccc1NS(=O)(=O)c1ccc(-c2cnc(C3CC3)o2)cc1`, the concentration for half-maximal inhibition (IC50) is 6.3 µM.
In the case of `COc1cc(C(=O)N2CCN(c3cc(Cl)ccc3Cl)CC2)cc(OC)c1OC`, the IC50 is 24.5 µM (inactive).
On to `COc1ccc(OC)c(Nc2cc(-c3ccccc3)nc(N)n2)c1`, for which the IC50 was 26.9 µM (inactive).
Regarding `O=C(Nc1ccc(S(=O)(=O)N2CCCC2)cc1)c1ccc(CN2CCc3ccccc3C2)cc1`, the IC50 was > 80 µM (inactive).
The figure for `COC(=O)Cc1[nH]n(-c2nc3ccccc3s2)c(=O)c1C(C)=Nc1ccc(OC)cc1` is 6.49 µM; for `COc1ccc(CNC(=O)c2c(C)oc3c2C(=O)c2ccccc2C3=O)cc1` it is 8.08 µM; for `CC(C)Oc1ccccc1C1CC(=O)Nc2cc3c(cc21)OCCO3` (stereo unspecified) it is > 80 µM (inactive).
Consider `CCn1ncc(C2=NOC(C(=O)NCc3ccccc3)C2)c1C` (stereo unspecified), for which the half-maximal inhibitory concentration (IC50) was under 0.16 µM.
For the compound `NC(=O)CC(NC(=O)c1ccc(Br)cc1)c1ccc(N2CCCCCC2)c([N+](=O)[O-])c1` (stereo unspecified), the 50% inhibitory concentration (IC50) is 2.54 µM.
The figure for `CC(=O)O[C@H]1C(=O)[C@]2(C)[C@H]([C@H](OC(=O)c3ccccc3)[C@]3(O)C[C@H](OC(=O)[C@H](O)[C@@H](NC(=O)c4ccccc4)c4ccccc4)C(C)=C1C3(C)C)[C@]1(OC(C)=O)CO[C@@H]1C[C@@H]2O` is 0.51 µM; for `Clc1ccc(CSc2nncn2-c2ccc3c(c2)OCCO3)cc1` it is > 80 µM (inactive); for `CCOc1ccccc1NC(=O)Cn1nnc(C(=O)NCc2ccco2)c1N` it is > 80 µM (inactive).
The value for `COc1ccc(OC)c(-c2nnc3n2N=C(c2ccc(OC)c(OC4CCCC4)c2)CS3)c1` was 15.9 µM.
Turning to `Cc1ccc(C(=O)Nc2cnc3ccccc3c2)cc1`, the half-inhibitory concentration (IC50) is 0.37 µM.
In the case of `COc1ccc(-[n+]2c(-c3ccccc3)cc(-c3ccc(C)cc3)cc2-c2ccccc2)cc1`, the IC50 was 4.95 µM.
In the case of `Cc1cc(=O)oc2cc(OCC3CC(c4ccccc4Cl)=NO3)ccc12` (stereo unspecified), the IC50 is > 80 µM (inactive).
For the compound `COc1ccc(-c2ccc3oc(-c4ccc(OC)cc4)c(C#CCO)c3c2)cc1`, the IC50 was > 80 µM (inactive).
The figure for `Cc1oc2c(c1C(=O)NCc1cccnc1)C(=O)c1ccccc1C2=O` is 1.1 µM; for `Cc1noc(C)c1CSc1nc2ccccc2c(=O)n1-c1ccccc1` it is 30.8 µM (inactive).
The value for `C=CCOC(=O)c1[nH]c2c(c1C)C(=O)CC(c1ccco1)C2` (stereo unspecified) was > 80 µM (inactive).
Turning to `c1ccc(-c2noc(-c3ccc4c(c3)OCO4)n2)nc1`, the IC50 is 0.55 µM.
The value for `O=S(=O)(Nc1cccc2ncccc12)c1cccs1` was 0.89 µM; that for `CCCC(=O)NC(c1ccccc1Cl)c1ccc2cccnc2c1O` (stereo unspecified) was 2.81 µM; that for `Cc1cc(C(=O)N2CC=C(c3ccccc3)CC2)c2ccccc2n1` was 75.7 µM (inactive).
Take `COc1ccc(COC(=O)c2cc([N+](=O)[O-])ccc2N2CCOCC2)cc1F`: the IC50 is > 80 µM (inactive).
With `CC(=O)O[C@H]1C(=O)[C@@]2(C)C([C@H](OC(=O)c3ccccc3)[C@]3(O)C[C@H](OC(=O)[C@H](O)[C@@H](NC(=O)Cc4ccccc4)c4ccccc4)C(C)=C1C3(C)C)[C@]1(OC(C)=O)CO[C@@H]1C[C@@H]2O` (stereo partly specified), the IC50 is > 80 µM (inactive).
The figure for `Cc1sc2ncnc(NC3CCN(Cc4ccccc4)CC3)c2c1C` is > 80 µM (inactive).
As for `Cc1cc(-c2ccc(S(=O)(=O)N(C)c3ccc(C)c(C)c3)s2)on1`, the IC50 was > 80 µM (inactive).
As to `CCC(=O)NC(c1ccc(C)cc1)c1ccc2cccnc2c1O` (stereo unspecified), the IC50 was 11.6 µM.
The figure for `COc1cc(C(=O)Nc2ccc3c(c2)ncn3C)cc(OC)c1OC` is > 80 µM (inactive); for `Cc1noc(C)c1COc1ccc(C(=O)NNC(=O)c2ccccc2F)cc1` it is > 80 µM (inactive); for `COc1ccc(CC(=O)Nc2cccc(-c3nnc(-c4cccc(C)c4)o3)c2)cc1OC` it is 47.6 µM (inactive).
Take `CC(C)c1oc(=O)cc2c1[C@@H](O)[C@H]1OC(=O)[C@@]3(C)CC[C@@H](O)[C@@]2(C)C13` (stereo partly specified): the concentration for half-maximal inhibition (IC50) was 2.54 µM.
In the case of `CCc1c(C)nc2ncnn2c1NCCc1ccc(OC)cc1`, the IC50 was > 80 µM (inactive).
Take `CCN(c1ccccc1)S(=O)(=O)c1ccc(C(=O)NC2CCN(Cc3ccccc3)CC2)cc1`: the IC50 was 33 µM (inactive).
The value for `Cc1ccc(S(=O)(=O)Cc2ccc(C(=O)N3CCN(c4cccc(C)c4C)CC3)o2)cc1` was 15.8 µM.
With `Cc1ccc(C(=O)Nc2cccc(C(=O)O)c2)cc1`, the half-inhibitory concentration (IC50) is 3.03 µM.
For the compound `Cc1cc(NC(=O)CSc2nc3c(sc4ccccc43)c(=O)n2CCCN2CCOCC2)n[nH]1`, the IC50 is > 80 µM (inactive).
In the case of `CCOc1ccccc1NC(=O)Cn1nnc(C(=O)NCc2cccs2)c1N`, the IC50 was > 80 µM (inactive).
Consider `CCn1c2ccccc2c2cc(NC(=O)c3cc(OC)cc(OC)c3)ccc21`, for which the IC50 was > 80 µM (inactive).
With `COc1ccc(Cn2c(SCc3ccc(C)cc3)nc3cc(OC)c(OC)cc3c2=N)cc1Cl`, the IC50 was 3.51 µM.
The figure for `COC(=O)Nc1ccc(S(=O)(=O)N2c3ccccc3CCC2C)cc1` (stereo unspecified) is 26.6 µM (inactive); for `COc1ccc(-n2nnnc2-c2cccc(OC)c2)cc1` it is > 80 µM (inactive).
With `C=CC[C@@H](CC/C=C/C=C/CC/C=C\[C@@H]1CSC([C@@H]2C[C@@H]2C)=N1)OC`, the IC50 is 50.8 µM (inactive).
As for `Cc1ccc(S(=O)(=O)/N=C2\C=C(Nc3ccc(O)cc3)C(=O)c3ccccc32)cc1`, the half-maximal inhibitory concentration (IC50) is 0.62 µM.
The figure for `O=S(=O)(C/C(=C/CO)S(=O)(=O)c1ccccc1)c1ccccc1` is 0.77 µM.
Regarding `O=C(Nc1ccc(N2CCCCC2)cc1)c1ccccn1`, the half-maximal inhibitory concentration (IC50) is 0.46 µM.
Consider `COc1ccc(C(=O)/C(C#N)=N/Nc2ccc([N+](=O)[O-])cc2)cc1`, for which the concentration for half-maximal inhibition (IC50) is 9.52 µM.
The value for `COc1ccc(OC)c2c1C(=O)C(Cl)=C(Cl)C2=O` was 1.65 µM; that for `Cc1ccc(Nc2cc(C)nn2-c2nc(C)cc(=O)[nH]2)cc1` was 0.92 µM; that for `O=C(Nc1ccc(Oc2cccnc2)nc1)c1ccc(C(F)(F)F)cc1` was > 80 µM (inactive).
Consider `Cc1cccc(N2CCN(C(=O)c3ccc(CS(=O)(=O)c4ccccc4C)o3)CC2C)c1` (stereo unspecified), for which the IC50 is 9.62 µM.
The value for `CCOc1ccc(NC(=O)c2cc3c(C)nc4ccccc4c3o2)cc1` was > 80 µM (inactive); that for `COc1ccc([C@H]2CC(=O)C=C(c3ccc(OC)cc3OC)C2)cc1` was > 80 µM (inactive); that for `CCCC(=O)Nc1nc2ccc(NC(=O)c3c(F)c(F)c(OC)c(F)c3F)cc2s1` was 11.5 µM.
The figure for `COc1ccc(C)cc1NS(=O)(=O)c1ccc(-c2cnc(C3CC3)o2)cc1` is > 80 µM (inactive); for `COC(=O)Nc1ccc(S(=O)(=O)N2CCCc3ccccc32)cc1` it is > 80 µM (inactive).
As to `O=C(Nc1ccc(Cc2ccncc2)cc1)c1ccc(S(=O)(=O)N2CCCC2)cc1`, the IC50 is 77.4 µM (inactive).
For the compound `Cc1cc(C)cc(NS(=O)(=O)c2ccc(-c3cnc(C4CC4)o3)cc2)c1`, the IC50 is 20.5 µM (inactive).
With `C/C=C(\C)C(=O)N[C@@H](c1ccccc1)[C@@H](O)C(=O)O[C@H]1C[C@@]2(O)[C@@H](OC(=O)c3ccccc3)C3[C@](C)(C(=O)[C@H](O)C(=C1C)C2(C)C)[C@@H](O)C[C@H]1OC[C@@]31OC(C)=O` (stereo partly specified), the IC50 was > 80 µM (inactive).
The value for `CC(C)(C)c1csc(Sc2ccc([N+](=O)[O-])cn2)n1` was 3.24 µM.
The figure for `COc1cc(/C=C/c2ccc3cccc(O)c3n2)cc(OC)c1OC` is 1.59 µM.
For the compound `COc1ccc(C2=Nn3c(nnc3-c3ccccc3OC)SC2)cc1OC1CCCC1`, the half-maximal inhibitory concentration (IC50) is 15.3 µM.
On to `CCOc1ccc(-c2[nH]ncc2-c2ccc(OC)c(OC)c2)c(O)c1`, for which the IC50 is 28.4 µM (inactive).
For the compound `CC#CC(=O)N1CCC(n2nccc2NC(=O)c2ccc3c(c2)OCO3)CC1`, the IC50 was > 80 µM (inactive).
The figure for `CC(C)(C)c1ccc(C(=O)O/N=C(\N)c2ccccc2)cc1` is 2.31 µM; for `O=[N+]([O-])c1ccc(-c2nc(C(Cl)Cl)c3ccccc3n2)cc1` it is 1.12 µM; for `O=C(O)c1ccc(-c2ccc(-c3ccccc3)cc2)s1` it is 1.39 µM.
With `CCC/C(O)=C1\C(=O)CC(C)(C)CC1=Nc1ccc(OC)cc1OC`, the IC50 is > 80 µM (inactive).
On to `CCCCC(=O)NC(c1ccc(Cl)cc1)c1ccc2cccnc2c1O` (stereo unspecified), for which the concentration for half-maximal inhibition (IC50) is 8.39 µM.
`CC(=O)Nc1ccc(S(=O)(=O)N2c3ccccc3C(C)=CC2(C)C)cc1`: the IC50 is 24.4 µM (inactive).
The figure for `Cn1nc(C(C)(C)C)cc1C(=O)NCc1cc(F)cc2c1OCOC2` is > 80 µM (inactive); for `CN[C@H]1CCc2cc(OC)c(OC)c(OC)c2-c2ccc(OC)c(=O)cc21` it is > 80 µM (inactive).
With `COc1cc(NC(=O)N2CCNC2=O)cc(C(=O)Nc2cccc(C(F)(F)F)c2)c1`, the IC50 was > 80 µM (inactive).
Take `Nc1ncn([C@@H]2O[C@H](CO)[C@@H](O)[C@H]2O)c(=O)n1`: the half-maximal inhibitory concentration (IC50) is 10.8 µM.
On to `CC(Nc1ncnc2ccccc12)c1ccccc1` (stereo unspecified), for which the IC50 was > 80 µM (inactive).
The value for `COc1ccc(-c2csc(NC(=O)C3CCN(c4ncnc5sc(C)c(C)c45)CC3)n2)cc1OC` was > 80 µM (inactive).
